Patent US20250034523A1, “METHODS OF GENERATING HUMAN COCHLEAR HAIR CELLS” (THE TRUSTEES OF INDIANA UNIVERSITY, priority 2021, published 2025)

Test system: hESC-derived PAX2-nGFP+ otic progenitors
Test: ventral/dorsal otic marker expression in otic progenitors (D20 scRNA-seq, D25 immunofluorescence)
Type: cell-based, human
Description: PAX2-2A-nGFP/POU4F3-2A-ntdTomat hESCs (passages 22-50) were maintained and passaged in Essential 8 Flex Medium (Thermo Fisher, A2858501) supplemented with 100 μg/ml Normocin (E8fn) on recombinant human Vitronectin-N(Thermo Fisher, A14700)-coated 6-well plates. Human inner ear organoids were derived from hESCs based on the inventors' previous protocol 8.10 with major modifications. Briefly, hESCs were dissociated with StemPro Accutase (Thermo Fisher, A1110501) and distributed at 3500 cells per well onto low-adhesion 96-well U-bottom plates in 100 μL E8fn containing 20 μM Y-27632 (Stemgent, 04-0012-02) and forcibly aggregated at 120 g for 5 minutes. 100 μL of E8fn was added to each well after >4 h of incubation. Induction of non-neural epithelium occurred following 48 h of aggregation, marking differentiation day 0, as follows: aggregates were washed extensively in DMEM:F12 with HEPES buffer (DFH) (Thermo Fisher, 11320033) and transferred to new 96-well U-bottom plates in 100 μL of E6 medium (Thermo Fisher, A1516401) with Normocin (E6n) containing 4 ng mL^−1 FGF-2 (StemCell Technologies, 780003), 10 μM SB-431542 (Stemgent, 04-0010-05), and 2% growth factor reduced (GFR) Matrigel (Corning, 354230). On day 3 of differentiation, 25 μL of E6n containing 50 ng/ml FGF-2 and 200 nM LDN-193189 (Stemgent, 04-0074-02) was added to each well. […]

SMILES: c1ccc2c(Oc3nc(Nc4ccc(N5CCOCC5)cc4)c4ncn(C5CCCCC5)c4n3)cccc2c1 [PUR, 9H-Purin-6-amine, 9-cyclohexyl-N-[4-(4-morpholinyl)phenyl]-2-(1-naphthalenyloxy)-]
- ventral otic marker expression (D20-D25 organoids): not sufficient
- expression of SHH pathway genes SULF1, LRP2, GAS1, PTCH1 (D20 otic progenitors): attenuated
